Reference: ChEMBL document CHEMBL5385954, “Pepticinnamins N, O, and P, Nonribosomal Peptides from the Soil-Derived Streptomyces mirabilis P8-A2” (J Nat Prod, 2024)

How the values were obtained:
Staphylococcus aureus = experiment: Antimicrobial activity against Staphylococcus aureus 8325 incubated for 12 hrs by agar diffusion method; type: functional
Bacillus subtilis = experiment: Antimicrobial activity against Bacillus subtilis incubated for 12 hrs by agar diffusion method; type: functional
Pseudomonas aeruginosa = experiment: Antimicrobial activity against Pseudomonas aeruginosa PAO1 incubated for 12 hrs by agar diffusion method; type: functional
Candida albicans = experiment: Antimicrobial activity against Candida albicans IBT 656 incubated for 24 hrs by broth dilution method; type: functional
LNCaP [1] = experiment: Cytotoxicity against human LNCaP cells assessed as inhibition of cell growth incubated for 72 hrs by CellTox Green cytotoxicity assay; type: functional, cell-based
LNCaP C4-2B [2] = experiment: Cytotoxicity against human LNCaP C4-2B cells assessed as inhibition of cell growth incubated for 72 hrs by CellTox Green cytotoxicity assay; type: functional, cell-based
LNCaP [3] = experiment: Cytotoxicity against drug resistant human LNCaP cells assessed as inhibition of cell growth incubated for 72 hrs by CellTox Green cytotoxicity assay; type: functional, cell-based
LNCaP C4-2B [4] = experiment: Cytotoxicity against drug resistant human LNCaP C4-2B cells assessed as inhibition of cell growth incubated for 72 hrs by CellTox Green cytotoxicity assay; type: functional, cell-based

MIC (Staphylococcus aureus) | MIC (Bacillus subtilis) | MIC (Pseudomonas aeruginosa) | MIC (Candida albicans) | Structure (SMILES) | IC50 (LNCaP [1]) | IC50 (LNCaP C4-2B [2]) | IC50 (LNCaP [3]) | IC50 (LNCaP C4-2B [4])
> 50 µg/mL | > 50 µg/mL | > 50 µg/mL | > 50 µg/mL | CCC/C=C\c1ccccc1/C=C/C(=O)N[C@H](Cc1ccc(O)cc1)C(=O)N(C)[C@@H](Cc1ccc(OC)c(O)c1)C(=O)N(C)[C@@H](Cc1ccccc1)C(=O)OC[C@H]1NC(=O)CNC1=O | > 10 µM | > 10 µM | > 10 µM | > 10 µM
> 50 µg/mL | > 50 µg/mL | > 50 µg/mL | > 50 µg/mL | CCC/C=C\c1ccccc1/C=C/C(=O)N[C@H](Cc1ccc(O)cc1)C(=O)N(C)[C@@H](Cc1ccc(OC)c(O)c1)C(=O)N(C)[C@@H](Cc1ccccc1)C(=O)O |  |  |  | 
> 50 µg/mL | > 50 µg/mL | > 50 µg/mL | > 50 µg/mL | CCC/C=C\c1ccccc1/C=C/C(=O)N[C@H](Cc1ccc(O)cc1)C(=O)N(C)[C@@H](Cc1ccc(OC)c(O)c1Cl)C(=O)N(C)[C@@H](Cc1ccccc1)C(=O)OC[C@H]1NC(=O)CNC1=O | > 10 µM | > 10 µM | > 10 µM | > 10 µM
> 50 µg/mL | > 50 µg/mL | > 50 µg/mL | > 50 µg/mL | CCC/C=C\c1ccccc1/C=C/C(=O)N[C@H](Cc1ccc(O)cc1)C(=O)N(C)[C@@H](Cc1ccc(OC)c(O)c1Cl)C(=O)N(C)[C@@H](Cc1ccccc1)C(=O)O | > 10 µM | > 10 µM | > 10 µM | > 10 µM
